Strand notation (5' to 3'): a small letter for the sugar, then the base; units joined by * are phosphorothioate-linked, units joined directly phosphodiester-linked; [ ] holds rarer units or linkages, { } end groups; capitals alone tell only the bases. d = 2'-deoxy (DNA)
Assays:
ICAM-1 = assay: ELISA screening for ICAM-1 expression in interleukin-1β-stimulated cells (HUVEC and A549); type: cell-based, human; conditions: interleukin-1β-stimulated cells, two cell lines (HUVEC, A549)
VCAM-1 = assay: ELISA of VCAM-1 expression in TNF-stimulated HUVEC; type: cell-based, human; conditions: for VCAM-1 EXPRESSION 30 nM oligo (VCAM-1 expression is given as % of control) / VCAM-1 EXPRESSION 50 nM oligo (VCAM-1 expression is given as % of control): TNF-α 16 hours; for IC50: TNF-α, read-out: IC50 for inhibition of VCAM-1 expression (asterisk)
Method: Primary human umbilical vein endothelial (HUVEC) cells, passage 2 to 5, were plated in 96-well plates and allowed to reach confluence. Cells were washed three times with Opti-MEM (GIBCO, Grand Island N.Y.). Cells were treated with increasing concentrations of oligonucleotide diluted in Opti-MEM containing 10 μg/ml DOTMA solution (Bethesda Research Labs, Bethesda, Md.) for 4 hours at 370C. The medium was removed and replaced with EGM-UV (Clonetics, San Diego Calif.) plus oligonucleotide. Tumor necrosis factor α was added to the medium (2.5 ng/ml) and the cells were incubated an additional 4 hours at 37° C.
ELAM-1 expression was determined by ELISA. Cells were gently washed three times with Dulbecco's phosphate-buffered saline (D-PBS) prewarmed to 37° C. Cells were fixed with 95% ethanol at 4° C. for 20 minutes, washed three times with D-PBS and blocked with 2% BSA in D-PBS. Cells were incubated with ELAM-1 monoclonal antibody BBA-1 (R&D Systems, Minneapolis Minn.) diluted to 0.5 μg/ml in D-PBS containing 2% BSA for 1 hour at 37° C. Cells were washed three times with D-PBS and the bound ELAM-1 antibody detected with biotinylated goat anti-mouse secondary antibody followed by β-galactosidase-conjugated streptavidin as described in Example 1.
Inhibition of VCAM-1 expression by fifteen antisense phosphorothioate oligonucleotides was determined using the ELISA assay approximately as described in Example 12, except that cells were stimulated with TNF-àfor 16 hours and VCAM-1 expression was detected by a VCAM-1 specific monoclonal antibody (R & D Systems, Minneapolis, Minn.) used at 0.5 μg/ml.

Row | Substance | inhibition of ICAM-1 expression, relative activity in words (ICAM-1) | VCAM-1 EXPRESSION 30 nM oligo (VCAM-1 expression is given as % of control) (VCAM-1) | VCAM-1 EXPRESSION 50 nM oligo (VCAM-1 expression is given as % of control) (VCAM-1) | IC50 (VCAM-1)
1 | ISIS 1936: P=S, human ICAM-1 Coding Region (1459-1468), SEQ ID NO 12 (antisense dC*dT*dC*dG*dC*dG*dG*dG*dT*dG*dA*dC*dC*dT*dC*dC*dC*dC*dT*dT) | weak activity |  |  | 
2 | ISIS 1573: P=S, human ICAM-1 3′-Untranslated (2849-2866), SEQ ID NO 4, GAGGCTGAGGTGGGAGGA (antisense dG*dA*dG*dG*dC*dT*dG*dA*dG*dG*dT*dG*dG*dG*dA*dG*dG*dA) | not as active as ISIS-1939 |  |  | 
3 | ISIS 2974: 2′-O-methyl; P=S, human ICAM-1 AUG Codon (64-81), SEQ ID NO 1 (TGGGAGCCATAGCGAGGC; listed as DNA, chemistry not fully specified) | approximately threefold less effective than ISIS 1570 |  |  | 
4 | ISIS 1932: P=S, human ICAM-1 AUG Codon (72-91), SEQ ID NO 8, CGGGGGCTGCTGGGAGCCAT (antisense dC*dG*dG*dG*dG*dG*dC*dT*dG*dC*dT*dG*dG*dG*dA*dG*dC*dC*dA*dT) | slightly less active than ISIS 1570 and ISIS 1931 |  |  | 
5 | ISIS 1935: P=S, human ICAM-1 Coding Region (889-908), SEQ ID NO 11 (antisense dG*dG*dT*dC*dA*dC*dA*dC*dT*dG*dA*dC*dT*dG*dA*dG*dG*dC*dC*dT) | weak activity |  |  | 
6 | ISIS 2637: 2′-fluoro A, C & U, human ICAM-1 3′-Untrans. (1952-1971), SEQ ID NO 15 (antisense CCCCCACCACTTCCCCTCTC; all 2'-fluoro, backbone and T or U not given here; further chemistry not fully specified) | did not exhibit this level of activity |  |  | 
7 | ISIS 2634: 2′-fluoro A, C & U; P=S, human ICAM-1 AUG-Codon (64-81), SEQ ID NO 1 (antisense TGGGAGCCATAGCGAGGC; DNA at G, 2'-fluoro at ACT, all phosphorothioate, T or U not given here) | less effective |  |  | 
8 | ISIS 5875: phosphorothioate, human VCAM-1 CODING 2183-2203, SEQ ID NO 68, GTCTTTGTTGTTTTCTCTTCC (DNA, all phosphorothioate, methylation of C not given here) |  | 59.2 % of control | 34.8 % of control | ≤ 50 nM
9 | ISIS 1934: P=S, human ICAM-1 Coding Region (351-370), SEQ ID NO 10 (antisense dT*dG*dC*dC*dC*dA*dT*dC*dA*dG*dG*dG*dC*dA*dG*dT*dT*dT*dG*dA) | weak activity |  |  | 
10 | ISIS 1938: P=S (printed P = 5), human ICAM-1 Termination Codon (1668-1687), SEQ ID NO 14, CCTGTCCCGGGATAGGTTCA (antisense dC*dC*dT*dG*dT*dC*dC*dC*dG*dG*dG*dA*dT*dA*dG*dG*dT*dT*dC*dA) | moderate activity |  |  | 
11 | ISIS 3801: phosphorothioate, human VCAM-1 3′-UTR 2872-2892, SEQ ID NO 50, AACCCAGTGCTCCCTTTGCT (DNA, all phosphorothioate, methylation of C not given here) |  | 36.5 % of control | 21.3 % of control | ≤ 50 nM
12 | ISIS 5862: phosphorothioate, human VCAM-1 5′-UTR 48-68, SEQ ID NO 62, CCTGTGTGTGCCTGGGAGGG (DNA, all phosphorothioate, methylation of C not given here) |  | 115.0 % of control | 3.5 % of control | 
13 | ISIS 3794: phosphorothioate, human VCAM-1 TERMIN. 2344-2362, SEQ ID NO 69, TGAACATATCAAGCATTAGC (DNA, all phosphorothioate, methylation of C not given here) |  | 75.3 % of control | 52.6 % of control | 
14 | ISIS 5847: phosphorothioate, human VCAM-1 3′-UTR 2957-2976, SEQ ID NO 72, AACATCTCCGTACCATGCCA (DNA, all phosphorothioate, methylation of C not given here) |  | 51.8 % of control | 24.6 % of control | ≤ 50 nM
15 | ISIS 5885: phosphorothioate, human VCAM-1 E/I 1633-1649 + intron, SEQ ID NO 66, TTACCATTGACATAAAGTGTT (DNA, all phosphorothioate, methylation of C not given here) |  | 84.4 % of control | 52.4 % of control | 
16 | ISIS 5863: phosphorothioate, human VCAM-1 CODING 745-764, SEQ ID NO 64, CAGCCTGCCTTACTGTGGGC (DNA, all phosphorothioate, methylation of C not given here) |  | 95.8 % of control | 66.7 % of control | 
17 | ISIS 3805: phosphorothioate, human VCAM-1 3′-UTR 2826-2845, SEQ ID NO 71, CCCGGCATCTTTACAAAACC (DNA, all phosphorothioate, methylation of C not given here) |  | 7.7 % of control | 44.9 % of control | ≤ 50 nM
18 | ISIS 2307: P=S, human ICAM-1 3′-Untranslated (1976-1995), SEQ ID NO 26 (antisense dT*dG*dT*dC*dC*dT*dC*dA*dT*dG*dG*dT*dG*dG*dG*dG*dC*dT*dA*dT) | least active of the series |  |  | 
19 | ISIS 2973: 2′-O-methyl; P=S, human ICAM-1 3′-Untrans. (1952-1971), SEQ ID NO 15 (CCCCCACCACTTCCCCTCTC; listed as DNA, chemistry not fully specified) | did not exhibit this level of activity |  |  | 
20 | ISIS 5884: phosphorothioate, human VCAM-1 5′-UTR 1-19, SEQ ID NO 60, CGATGCAGATACCGCGGAGT (antisense dC*dG*dA*dT*dG*dC*dA*dG*dA*dT*dA*dC*dC*dG*dC*dG*dG*dA*dG*dT) |  | 79.2 % of control | 37.2 % of control | ≤ 50 nM
21 | ISIS 3791: phosphorothioate, human VCAM-1 5′UTR 38-58, SEQ ID NO 61, CCTGGGAGGGTATTCAGCT (antisense dG*dC*dC*dT*dG*dG*dG*dA*dG*dG*dG*dT*dA*dT*dT*dC*dA*dG*dC*dT) |  | 92.6 % of control | 58.0 % of control | 
22 | ISIS 1931: P=S, human ICAM-1 AUG Codon (55-74), SEQ ID NO 7, CATAGCGAGGCTGAGGTTGC (antisense dC*dA*dT*dA*dG*dC*dG*dA*dG*dG*dC*dT*dG*dA*dG*dG*dT*dT*dG*dC) | inhibit ICAM-1 expression |  |  | 
23 | ISIS 3792: phosphorothioate, human VCAM-1 AUG 110-129, SEQ ID NO 63, GGCATTTTAAGTTGCTGTCG (DNA, all phosphorothioate, methylation of C not given here) |  | 68.7 % of control | 33.7 % of control | ≤ 50 nM
24 | ISIS 1937: P=S, human ICAM-1 Termination Codon (1651-1687), SEQ ID NO 13, TCAGGGAGGCGTGGCTTGTG (antisense dT*dC*dA*dG*dG*dG*dA*dG*dG*dC*dG*dT*dG*dG*dC*dT*dT*dG*dT*dG) | moderate activity |  |  | 
25 | ISIS 1933: P=S, human ICAM-1 Coding Region (111-130), SEQ ID NO 9 (antisense dA*dG*dA*dG*dC*dC*dC*dC*dG*dA*dG*dC*dA*dG*dG*dA*dC*dC*dA*dG) | weak activity |  |  | 

From patent US6849612B2, “Oligonucleotide modulation of cell adhesion” (ISIS Pharmaceuticals, Inc., priority 1993, dated 2005)
